Measurements reported in PubChem BioAssay (NCI).
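Five compound concentrations were applied to cells in 96-well plates for 48 hours; endpoints were derived by simple linear interpolation of the resulting dose-response curve. At the TGI there is no net growth.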 Where a SMILES comes first, the peptide text is derived from it. Bridges are numbered along the chain shown (N, C = ends). [ ]: non-standard residue; d: D form. The star is where a group is joined. ξ: configuration not given here. Cbz = O=C(OCc1ccccc1)*; ξD = NC(CC(=O)O)C(=O)O; Ac3c = NC1(C(=O)O)CC1; Boc = CC(C)(C)OC(=O)*; OtBu = CC(C)(C)O*

Experiments:
Assay in all cases: NCI tumour cell line growth inhibition, 48 h
UACC-62 melanoma = system: UACC-62 melanoma
DU-145 prostate = system: DU-145 prostate
SF-295 CNS = system: SF-295 CNS
KM12 colon = system: KM12 colon
IGROV1 ovarian = system: IGROV1 ovarian
MDA-N = system: MDA-N
MOLT-4 leukemia = system: MOLT-4 leukemia
OVCAR-8 ovarian = system: OVCAR-8 ovarian
MDA-MB-231 breast = system: MDA-MB-231 breast
HT29 colon = system: HT29 colon

Row | Structure (SMILES) | TGI (UACC-62 melanoma) [µM] | TGI (DU-145 prostate) [µM] | TGI (SF-295 CNS) [µM] | TGI (KM12 colon) [µM] | TGI (IGROV1 ovarian) [µM] | TGI (MDA-N) [µM] | TGI (MOLT-4 leukemia) [µM] | TGI (OVCAR-8 ovarian) [µM] | TGI (MDA-MB-231 breast) [µM] | TGI (HT29 colon) [µM]
1 | CC(=O)CC(C)(C)NC(=O)[C@@]1(O)CC[C@H]2[C@@H]3CCC4=CC(=O)CC[C@@H]4[C@H]3CC[C@@]21C | > 100 | > 100 | > 100 | > 100 | > 100 | > 100 | > 100 | > 100 | > 100 | > 100
2 | CC(C)C(C/C=C1/CC(CO)(COC(=O)C2CCCCC2)OC1=O)C(C)C (stereo not given) | > 100 | 28.8 | 29 | 55.3 | 34.2 | 38.8 | 94.8 | 32.7 | 37.4 | 75.4
3 | Cc1ccc(N=C2SC(c3ccc(C)cc3)(c3ccc(C)cc3)c3ccccc32)cc1 | > 100 | > 100 | > 100 | > 100 | > 100 | > 100 | > 100 | > 100 | > 100 | > 100
4 | N#CC1(c2ccccc2)CCN(C2(c3ccccc3)CCCCC2)CC1 | > 100 | > 100 | > 100 | > 100 | > 100 | > 100 | > 100 | > 100 | > 100 | > 100
5 | COc1ccc2c(-c3ccc(OCCN(C)C)cc3)c(Oc3ccc(Cl)cc3)c(=O)oc2c1 | 7.52 | 32.7 | 5.42 | 25.1 | 14.1 | 4.39 | 6.09 | > 46.9 | 33.5 | > 46.7
6 | CC1C2CC(C/C2=N/O)C1(C)C (stereo not given) | > 100 | > 100 | > 100 | > 100 | > 100 | > 100 | > 100 | > 100 | > 100 | > 100
7 | O=C1NC2CCCCC2N=C1/C(C(=O)c1ccccc1)=C(\O)c1ccccc1 (stereo not given) | 68.9 | > 100 | > 100 | > 100 | > 100 | > 100 | 79.3 | 86.6 | 83 | > 100
8 | COc1ccc2c(c1OC)C(=O)O[C@@H]2[C@H]1c2cc3c(cc2CCN1C)OCO3 | > 100 | > 100 | > 100 | > 100 | > 100 | > 100 | > 100 | > 100 | > 100 | > 100
9 | COC(=O)C1(NC(=O)C(CC(=O)OC(C)(C)C)NC(=O)OC(C)(C)C)CC1 (stereo not given) (Boc-[ξD](OtBu)-[Ac3c]-OMe) | > 100 | > 100 | > 100 | > 100 | > 100 | > 100 | > 100 | > 100 | > 100 | > 100
10 | O=C1CCC2(O)C3Cc4ccc(Oc5nnnn5-c5ccccc5)c5c4C2(CCN3CC2CC2)C1O5 (stereo not given) | 76 | > 100 | > 100 | > 100 | > 100 | 51 | > 100 | > 100 | > 100 | 68.8
11 | CCCCCn1c(=O)c2c(=O)[nH][nH]c2c2ccccc21 | > 100 | > 100 | > 100 | > 100 | > 100 | > 100 | > 100 | > 100 | > 100 | > 100
12 | COC(=O)C1CCCCNC(=O)CCC(NC(=O)OCc2ccccc2)C(=O)N1 (stereo not drawn) (Cbz-Glu-Lys-OMe; lactam 1-2; configuration not given here) | > 100 | > 100 | > 100 | > 100 | > 100 | > 100 | > 100 | > 100 | > 100 | > 100
13 | COC(=O)/C=C/c1cc(OC)c2oc(-c3ccc(OC)c(OC)c3)c(C(=O)OC)c2c1 | > 100 | > 100 | > 100 | > 100 | > 100 | > 100 | > 100 | > 100 | > 100 | > 100
14 | CCCCc1ccc(-n2sc3ncccc3c2=O)cc1 | 43.9 | > 100 | 31.2 | 32.5 | 33.3 | 29.3 | 57.7 | 45.7 | 32 | 33.1
15 | S=C(N/N=C\c1ccccn1)N(Cc1ccccn1)Cc1ccccn1 | > 23.1 | 19.7 | 16.3 | 23.5 | 11.2 | 47.9 | 19.4 | 12.7 | > 49 | 16.2
16 | CC1(C)CCCCCCCCCC(C)(CCCCCCCCCCCCO)C1=O (stereo not given) | 33.7 | 32 | 30.4 | 31.1 | 33.7 | 33.7 | 76.7 | 28.4 | 29.9 | 31
17 | CCOC(=O)c1c(NCc2ccccc2)n(-c2ccccc2)c(=S)n(-c2ccccc2)c1=O | > 100 | > 100 | > 100 | > 100 | > 100 | > 100 | > 100 | > 100 | > 100 | > 100
18 | N=C(N)SCCCN | 35 | 51.1 | > 66.8 | 59.6 | 15.6 | 26 | 3.16 | > 100 | 12.1 | 62.3
19 | CCNc1ncnc2c1nnn2CC | > 100 | > 100 | > 100 | > 100 | > 100 | > 100 | > 100 | > 100 | > 100 | > 100
20 | c1csc(-c2csc(-c3ccsc3)c2)c1 | > 100 | > 100 | > 100 | > 100 | > 100 | > 100 | > 100 | > 100 | > 100 | > 100
21 | N#CC12C(=O)N3C(=NC(c4ccccc4)NC3c3ccccc3)C1(C#N)C(c1ccccc1)NC1=C2CCCC1 (stereo not given) | > 100 | > 100 | > 100 | > 100 | > 100 | > 100 | > 100 | > 100 | > 100 | > 100
